Patent US6818235B2, “Beneficial control of energy balance in periparturient cattle” (Church & Dwight Co., Inc., priority 2001, dated 2004)

Key:
Type in all cases: in vivo
Holstein cows [1] = assay: Calculated net energy balance (net energy intake minus net energy secreted in milk)
From the text: (§1) One hundred and twenty Holstein cows who were to begin their second or greater lactation are randomly selected to receive one of four Conjugated Linoleic Acid (CLA) supplementation regimens. Control cows receive no supplemental CLA (0 CLA), cows offered Treatment 1 receive the cis-9, trans-11 CLA isomer (9, 11 CLA), cows offered Treatment 2 receive the trans-10, cis-12 CLA isomer (10, 12 CLA) and cows offered Treatment 3 receive both isomers in a 50:50 mix (mixed CLA).
Isomers of CLA are obtained at 85% purity and are converted to their amide form (unsubstituted) for a rumen bypass rate of 65%. The remaining 15% of the 85% pure CLA isomers are the other isomers of CLA. Treatments 1 and 2 are formulated to deliver 7 grams of each CLA isomer per cow/day at the intestinal level. […]
(§2) Other measurements include: Start-up milk production (defined as colostrum milk secreted in the first 24 hours postpartum) analyzed for milk fat and fatty acid composition; Daily milk production and composition (total fat and protein); Daily dry matter intake (DMI); Calculated net energy balance defined as net energy intake minus net energy secreted in milk expressed in megacalories (Mcal) per day.
Calculated average energy balance postpartum is actual daily […] minus actual daily milk energy outputs.

[2] = tested on: mammary glands of Holstein cows; assay: Mammary gland total parenchymal DNA and RNA-to-DNA ratio at day 15 postpartum; settings: excised mammary glands, five cows per treatment
From the text: as §1
(§3) Isomers of CLA are obtained at 85% purity and are converted to their amide form (unsubstituted) for a rumen bypass rate of 65%. The remaining 15% of the 85% pure CLA isomers are the other isomers of CLA. Treatments 1 and 2 are formulated to deliver 7 grams of each CLA isomer per cow/day at the intestinal level. Therefore, 13 g/cow/day of the respective CLA amides are included in the daily rations offered as Total Mixed Rations (TMR) (i.e., 13 g CLA amide×85% purity×65% rumen bypass=7.18 g intestinal CLA isomer). Treatment 3 is formulated to deliver 7 grams of both isomers per cow per day in the intestine resulting in a 26 g supplement.
Cows are fed their CLA treatments beginning 7 days prepartum and remain on the supplement until 35 days postpartum. To maintain the diets isoenergetic with equal amounts of added fat to the diets, the CLA amides are substituted for Megalac (calcium salts of palm fatty acids). […]

Holstein cows [3] = assay: Milk production and composition of postpartum cows fed CLA amide supplements
From the text: as §1, §3
Cows are fed their CLA treatments beginning 7 days prepartum and remain on the supplement until 35 days postpartum. To maintain the diets isoenergetic with equal amounts of added fat to the diets, the CLA amides are substituted for Megalac (calcium salts of palm fatty acids). Postpartum diets are offered immediately postpartum.
Prepartum diets are formulated to meet or exceed NRC (2000) requirements at a daily intake of 10.6 kg of DM. This is done to assure that all feed is consumed in a 24-hour period. Postpartum diets are also formulated to meet or exceed requirements for a cow producing (ca.) 45 kg of milk daily at ad libitum consumption of DM.
Cows are milked four times per day to assure maximum expression of production potential and are housed and fed in individual tie-stalls to obtain individual estimates of DMI.
as §2

[4] = average for the next 34 days postpartum
[5] = colostrum, first 24 hours postpartum

CCCCCC/C=C/C=C\CCCCCCCC(=O)O [9, 11 CLA, cis-9, trans-11 conjugated linoleic acid]
Calculated average energy blance postpartum (Holstein cows [1]; [4]): −1.1c Mcal/d
Calculated energy balance at the end of day-1 postpartum (Holstein cows [1]; end of day-1 postpartum): −3.6b Mcal
Total parenchymal DNA, lower compared to 0 CLA group [2]: 18%
FCM (fat corrected milk, 4% fat) (Holstein cows [3]; [4]): 36.88a kg/d
Milk (Holstein cows [3]; [4]): 40.2a kg/d
Milk fat (Holstein cows [3]; [4]): 1.04a kg/d
Milk fat % (Holstein cows [3]; [4]): 3.45a %
SCFA + MCFA:LCFA (ratio of short plus medium chain to long chain fatty acids in milk fat) (Holstein cows [3]; [4]): 58.42b
Startup milk fat % (Holstein cows [3]; [5]): 8.9c %
Startup milk fat kg (Holstein cows [3]; [5]): 1.44b kg
Startup milk (Holstein cows [3]; colostrum, first 24 hours postpartum, 7 g of each CLA isomer/cow/day at intestinal level): 20.2a kg
Startup FCM (fat corrected milk, 4% fat) (Holstein cows [3]; first 24 hours postpartum): 35.05c kg
